ChEMBL document CHEMBL3885881, “DrugMatrix”

Species on record: Rattus norvegicus
Assay: DrugMatrix - Regimen: Daily Repeat
Assay type: toxicity, organism-based, Sprague-Dawley
Parameters: regimen Daily Repeat, gender Male, age 6-8 weeks
Conditions: in vivo, po, route oral GAVAGE, […]; for ABSOLUTE BASOPHIL / ABSOLUTE EOSINOPHIL / ABSOLUTE LYMPHOCYTE / ABSOLUTE MONOCYTE / ABSOLUTE SEGMENTED NEUTROPHIL / BASOPHIL / EOSINOPHIL / ERYTHROCYTE COUNT / HEMATOCRIT / HEMOGLOBIN / LEUKOCYTE COUNT / LYMPHOCYTE / MEAN CORPUSCULAR HEMOGLOBIN / MEAN CORPUSCULAR HEMOGLOBIN CONCENTRATION / MEAN CORPUSCULAR VOLUME / MONOCYTE / NEUTROPHIL / NUCLEATED RED BLOOD CELLS / PLATELET COUNT: tissue Blood; for ALANINE AMINOTRANSFERASE / ALBUMIN / ALKALINE PHOSPHATASE / ASPARTATE AMINOTRANSFERASE / BLOOD UREA NITROGEN / CARBON DIOXIDE / CHLORIDE / CHOLESTEROL / CREATINE PHOSPHOKINASE / CREATININE / GLUCOSE / LACTATE DEHYDROGENASE / LIPASE / PHOSPHORUS / POTASSIUM / SODIUM / TOTAL BILIRUBIN / TOTAL PROTEIN / URIC ACID: tissue Plasma
[1] = 280 mg/kg, 120 h, dose level High, time 5 day
[2] = 72 h, dose 2.8 mg/Kg, dose level Low, time 3 day
[3] = 120 h, dose 2.8 mg/Kg, dose level Low, time 5 day

## CC/C(=C(/CC)c1ccc(O)cc1)c1ccc(O)cc1 [DIETHYLSTILBESTROL]
[1]
  ABSOLUTE BASOPHIL: 0 CELLS/uL
  ABSOLUTE EOSINOPHIL: 0 CELLS/uL
  ABSOLUTE LYMPHOCYTE: 5802 CELLS/uL
  ABSOLUTE MONOCYTE: 16.67 CELLS/uL
  ABSOLUTE SEGMENTED NEUTROPHIL: 514.67 CELLS/uL
  BASOPHIL: 0%
  EOSINOPHIL: 0%
  ERYTHROCYTE COUNT: 5.3 x10E6/uL
  HEMATOCRIT: 33.4%
  HEMOGLOBIN: 12.67 G/DL
  LEUKOCYTE COUNT: 6.33 x10E3/uL
  LYMPHOCYTE: 91.33%
  MEAN CORPUSCULAR HEMOGLOBIN: 23.9 pg
  MEAN CORPUSCULAR HEMOGLOBIN CONCENTRATION: 37.97 G/DL
  MEAN CORPUSCULAR VOLUME: 62.97 fL
  MONOCYTE: 0.33%
  NEUTROPHIL: 8.33%
  NUCLEATED RED BLOOD CELLS: 0.33 /100WBC
  PLATELET COUNT: 1806.33 x10E3/uL
  ALANINE AMINOTRANSFERASE: 47.33 u/L
  ALBUMIN: 3.6 G/DL
  ALKALINE PHOSPHATASE: 594.67 u/L
  ASPARTATE AMINOTRANSFERASE: 59 u/L
  BLOOD UREA NITROGEN: 14 mg/dL
  CARBON DIOXIDE: 28.33 mmol/L
  CHLORIDE: 100 MEQ/L
  CHOLESTEROL: 35 mg/dL
  CREATINE PHOSPHOKINASE: 88.33 u/L
  CREATININE: 0.3 mg/dL
  GLUCOSE: 144.67 mg/dL
  LACTATE DEHYDROGENASE: 47.33 u/L
  LIPASE: 9 u/L
  PHOSPHORUS: 9.33 mg/dL
  POTASSIUM: 5.01 MEQ/L
  SODIUM: 147.6 MEQ/L
  TOTAL BILIRUBIN: 0.6 mg/dL
  TOTAL PROTEIN: 6.27 G/DL
  URIC ACID: 0.3 mg/dL
[2]
  ABSOLUTE BASOPHIL: 0 CELLS/uL
  ABSOLUTE EOSINOPHIL: 0 CELLS/uL
  ABSOLUTE LYMPHOCYTE: 8607.33 CELLS/uL
  ABSOLUTE MONOCYTE: 102 CELLS/uL
  ABSOLUTE SEGMENTED NEUTROPHIL: 1057.33 CELLS/uL
  BASOPHIL: 0%
  EOSINOPHIL: 0%
  ERYTHROCYTE COUNT: 5.52 x10E6/uL
  HEMATOCRIT: 33.53%
  HEMOGLOBIN: 13.07 G/DL
  LEUKOCYTE COUNT: 9.77 x10E3/uL
  LYMPHOCYTE: 88%
  MEAN CORPUSCULAR HEMOGLOBIN: 23.73 pg
  MEAN CORPUSCULAR HEMOGLOBIN CONCENTRATION: 39.03 G/DL
  MEAN CORPUSCULAR VOLUME: 60.87 fL
  MONOCYTE: 1%
  NEUTROPHIL: 11%
  NUCLEATED RED BLOOD CELLS: 0 /100WBC
  PLATELET COUNT: 1167 x10E3/uL
  ALANINE AMINOTRANSFERASE: 57.33 u/L
  ALBUMIN: 3.83 G/DL
  ALKALINE PHOSPHATASE: 627.67 u/L
  ASPARTATE AMINOTRANSFERASE: 71 u/L
  BLOOD UREA NITROGEN: 7.67 mg/dL
  CARBON DIOXIDE: 26.67 mmol/L
  CHLORIDE: 105.33 MEQ/L
  CHOLESTEROL: 24.33 mg/dL
  CREATINE PHOSPHOKINASE: 222.33 u/L
  CREATININE: 0.12 mg/dL
  GLUCOSE: 155.33 mg/dL
  LACTATE DEHYDROGENASE: 64 u/L
  LIPASE: 8 u/L
  PHOSPHORUS: 9.27 mg/dL
  POTASSIUM: 5.23 MEQ/L
  SODIUM: 147.13 MEQ/L
  TOTAL BILIRUBIN: 0.13 mg/dL
  TOTAL PROTEIN: 5.6 G/DL
  URIC ACID: 0.6 mg/dL
[3]
  ABSOLUTE BASOPHIL: 0 CELLS/uL
  ABSOLUTE EOSINOPHIL: 46 CELLS/uL
  ABSOLUTE LYMPHOCYTE: 6817.67 CELLS/uL
  ABSOLUTE MONOCYTE: 68 CELLS/uL
  ABSOLUTE SEGMENTED NEUTROPHIL: 335 CELLS/uL
  BASOPHIL: 0%
  EOSINOPHIL: 0.67%
  ERYTHROCYTE COUNT: 5.68 x10E6/uL
  HEMATOCRIT: 36.33%
  HEMOGLOBIN: 13.8 G/DL
  LEUKOCYTE COUNT: 7.27 x10E3/uL
  LYMPHOCYTE: 93.33%
  MEAN CORPUSCULAR HEMOGLOBIN: 24.3 pg
  MEAN CORPUSCULAR HEMOGLOBIN CONCENTRATION: 38.03 G/DL
  MEAN CORPUSCULAR VOLUME: 64 fL
  MONOCYTE: 0.67%
  NEUTROPHIL: 5.33%
  NUCLEATED RED BLOOD CELLS: 0.33 /100WBC
  PLATELET COUNT: 1219.67 x10E3/uL
  ALANINE AMINOTRANSFERASE: 60.67 u/L
  ALBUMIN: 3.7 G/DL
  ALKALINE PHOSPHATASE: 729.67 u/L
  ASPARTATE AMINOTRANSFERASE: 65.67 u/L
  BLOOD UREA NITROGEN: 11.33 mg/dL
  CARBON DIOXIDE: 26.33 mmol/L
  CHLORIDE: 103.33 MEQ/L
  CHOLESTEROL: 19.33 mg/dL
  CREATINE PHOSPHOKINASE: 162.33 u/L
  CREATININE: 0.19 mg/dL
  GLUCOSE: 151.33 mg/dL
  LACTATE DEHYDROGENASE: 62 u/L
  LIPASE: 9.33 u/L
  PHOSPHORUS: 8.9 mg/dL
  POTASSIUM: 4.57 MEQ/L
  SODIUM: 146.9 MEQ/L
  TOTAL BILIRUBIN: 0.13 mg/dL
  TOTAL PROTEIN: 6.03 G/DL
  URIC ACID: 0.5 mg/dL
